In US20220324803A1 (Teon Therapeutics, Inc., priority 2019, published 2022):

The compounds below were run against T1, human Prostanoid EP4 Receptor (EP4) (Homo sapiens, UniProt P35408) (assay: Prostanoid EP4 binding assay (3H-prostaglandin E2 displacement, cell membranes)). Conditions: HEK293 cell membranes with human EP4, 3H-prostaglandin E2, 24° C.
T1 construct: expressed in transfected cells; host or cells: HEK293 (G418 selection); membranes prepared by differential centrifugation
Method: HEK293 cells transfected with human Prostanoid EP4 Receptor (EP4) are maintained in DMEM supplemented with L-Glutamine, 10% FBS and 300 μg/ml G418. Cells are harvested and membranes prepared by differential centrifugation, following lysis of the cells in the presence of protease inhibitors, for use in the receptor binding assay. EP4 binding assay is performed in 50 mM HEPES pH7.4, 5 mM MgCl2, 1 mM CaCl2) and 0.2% BSA. Testing compounds are diluted with DMSO to make 8-point 4-fold serial dilution. Cell membrane homogenates are incubated at 24° C. with ^3H-prostaglandin E2 in the absence or presence of the testing compound in assay buffer. Nonspecific binding (Low control: LC) and total binding (High control: HC) are determined in the presence or absence of saturated cold ligand Prostaglandin E2 (PGE2). Specific binding is calculated by subtracting nonspecific binding from total binding. When binding assays are completed, the reaction mixture is filtered rapidly under vacuum through glass fiber filters (GF/C, Packard) presoaked with 0.5% BSA for at least 0.5 hour at room temperature and then washed for 4 times with cold wash buffer (50 mM HEPES pH7.4, 500 mM NaCl, 0.1% BSA) using a 96-sample Perkin Elmer Filtermate Harvester (Unifilter, Packard). The filters are dried for 1 hour at 50 degrees then counted for radioactivity in a scintillation counter using Perkin Elmer Microscint 20 cocktail. ^3H trapped on filter is counted using Perkin Elmer MicroBeta2 Reader. Inhibition is calculated using following equation: % Inhibition=(1−(Assay well−Average_LC)/(Average_HC−Average_LC))×100%. The results are expressed as a percent inhibition of the control radioligand specific binding. Data are analyzed and IC50 is calculated using GraphPad Prism 5 and the model “log(inhibitor) vs. response—Variable slope”. The binding affinity of the compounds is determined by using the Cheng and Prusoff equation Ki=IC50/(1+[radioligand]/Kd).

T1 sequence (P35408 whole entry): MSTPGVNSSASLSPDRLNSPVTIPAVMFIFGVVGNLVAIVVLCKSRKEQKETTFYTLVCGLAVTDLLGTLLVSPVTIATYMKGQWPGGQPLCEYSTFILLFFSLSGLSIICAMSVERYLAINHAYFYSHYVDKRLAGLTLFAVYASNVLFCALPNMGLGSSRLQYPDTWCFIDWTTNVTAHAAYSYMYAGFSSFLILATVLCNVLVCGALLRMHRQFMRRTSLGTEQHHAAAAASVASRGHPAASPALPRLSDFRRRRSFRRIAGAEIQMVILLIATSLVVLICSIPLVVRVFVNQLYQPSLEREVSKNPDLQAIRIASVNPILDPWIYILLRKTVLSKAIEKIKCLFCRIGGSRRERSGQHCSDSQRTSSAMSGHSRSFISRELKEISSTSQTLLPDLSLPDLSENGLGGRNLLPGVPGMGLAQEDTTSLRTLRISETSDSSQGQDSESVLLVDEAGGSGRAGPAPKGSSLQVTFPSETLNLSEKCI

Compared with O=C(NC1CC2(C1)CC(C(=O)O)C2)c1cnn2cccc(Cc3cc4ccccc4cn3)c12 (single isomer, unassigned) [Compound 13A, cis-2-[[4-(3-isoquinolylmethyl)pyrazolo[1,5-a]pyridine-3-carbonyl]amino]spiro[3.3]heptane-6-carboxylic acid], O=C(N[C@H]1CC[C@@H](C(=O)O)C1)c1cnn2cccc(Cc3ccc(C(F)(F)F)cc3)c12 [Compound 39, (1R,3S)-3-[[4-[[4-(trifluoromethyl)phenyl]methyl]pyrazolo[1,5-a]pyridine-3-carbonyl]amino]cyclopentanecarboxylic acid] is lower in Ki: over 500 nM for the first, under 100 nM for the second.

Compared with O=C(O)CC12CC(NC(=O)c3cnn4cccc(Cc5cccc(C(F)(F)F)c5)c34)(C1)C2 [Compound 16, 2-[3-[[4-[[3-(trifluoromethyl)phenyl]methyl]pyrazolo[1,5-a]pyridine-3-carbonyl]amino]-1-bicyclo[1.1.1]pentanyl]acetic acid], CCn1cc(C(=O)NC23CC(CC(=O)O)(C2)C3)c2c(Cc3ccc(C(F)(F)F)cc3)cccc21 [Compound 51, 2-[3-[[1-ethyl-4-[[4-(trifluoromethyl)phenyl]methyl]indole-3-carbonyl]amino]-1-bicyclo[1.1.1]pentanyl]acetic acid] is lower in Ki: over 500 nM for the first, under 100 nM for the second.

First: O=C(O)CC12CC(NC(=O)c3n[nH]c4cccc(Cc5ccc(C(F)(F)F)cc5)c34)(C1)C2 [Compound 18, 2-(3-(4-(4-(trifluoromethyl)benzyl)-1H-indazole-3-carboxamido)bicyclo[1.1.1]pentan-1-yl)acetic acid]
Second: O=C(O)CC12CC(NC(=O)c3cn(CCF)c4cccc(Cc5ccc(C(F)(F)F)cc5)c34)(C1)C2 [Compound 52, 2-[3-[[1-(2-fluoroethyl)-4-[[4-(trifluoromethyl)phenyl]methyl]-indole-3-carbonyl]amino]-1-bicyclo[1.1.1.1]pentanyl]acetic acid]
The Ki of the first is higher: 100 to 499 nM for the first, under 100 nM for the second. The second binds more tightly here.

O=C(NC[C@H]1CC[C@H](C(=O)O)CC1)c1cnn2cccc(Cc3ccc(C(F)(F)F)cc3)c12 [Compound 40, (1r,4r)-4-[[[4-[[4-(trifluoromethyl)phenyl]methyl]pyrazolo[1,5-a]pyridine-3-carbonyl]amino]methyl]cyclohexanecarboxylic acid] and CCn1cc(C(=O)NC[C@H]2CC[C@H](C(=O)O)CC2)c2c(Cc3ccc(C(F)(F)F)cc3)cccc21 [Compound 55, (1r,4r)-4-[[[1-ethyl-4-[[4-(trifluoromethyl)phenyl]methyl]indole-3-carbonyl]amino]methyl]cyclohexanecarboxylic acid] cannot be ordered by Ki: under 100 nM for the first, under 100 nM for the second.

CCn1cc(C(=O)N[C@H]2CC3(C2)C[C@H](C(=O)O)C3)c2c(Cc3ccc(C(F)(F)F)cc3)cccc21 (stereo partly drawn) [Compound 41, trans-2-[[1-ethyl-4-[[4-(trifluoromethyl)phenyl]methyl]indole-3-carbonyl]amino]spiro[3.3]heptane-6-carboxylic acid] and O=C(N[C@H]1CC2(C1)C[C@H](C(=O)O)C2)c1cn(CCF)c2cccc(Cc3ccc(C(F)(F)F)cc3)c12 (stereo partly drawn) [Compound 44, trans-2-[[1-(2-fluoroethyl)-4-[[4-(trifluoromethyl)phenyl]methyl]-indole-3-carbonyl]amino]spiro[3.3]heptane-6-carboxylic acid] cannot be ordered by Ki: under 100 nM for the first, under 100 nM for the second.

CCn1cc(C(=O)N[C@@H](C)c2ccc(C(=O)O)cc2)c2c(Cc3ccc(C(F)(F)F)cc3)cccc21 [Compound 42, 4-[(1S)-1-[[1-ethyl-4-[[4-(trifluoromethyl)phenyl]methyl]indole-3-carbonyl]amino]ethyl]benzoic acid] and C[C@H](NC(=O)c1cn(CCF)c2cccc(Cc3ccc(C(F)(F)F)cc3)c12)c1ccc(C(=O)O)cc1 [Compound 43, 4-[(1S)-1-[[1-(2-fluoroethyl)-4-[[4-(trifluoromethyl)phenyl]methyl]indole-3-carbonyl]amino]ethyl]benzoic acid] cannot be ordered by Ki: under 100 nM for the first, under 100 nM for the second.

CCn1cc(C(=O)NC2CC3(C2)CC(C(=O)O)C3)c2c(Cc3ccc(C(F)(F)F)cc3)ccnc21 (stereo not drawn) [Compound 45, trans-2-[[1-ethyl-4-[[4-(trifluoromethyl)phenyl]methyl]-pyrrolo[2,3-b]pyridine-3-carbonyl]amino]spiro[3.3]heptane-6-carboxylic acid] and O=C(NC1CC2(C1)CC(C(=O)O)C2)c1cn(CCF)c2nccc(Cc3ccc(C(F)(F)F)cc3)c12 (stereo not drawn) [Compound 48, trans-2-[[1-(2-fluoroethyl)-4-[[4-(trifluoromethyl)phenyl]methyl]-pyrrolo[2,3-b]pyridine-3-carbonyl]amino]spiro[3.3]heptane-6-carboxylic acid] cannot be ordered by Ki: under 100 nM for the first, under 100 nM for the second.

CCn1cc(C(=O)N[C@@H](C)c2ccc(C(=O)O)cc2)c2c(Cc3ccc(C(F)(F)F)cc3)ccnc21 [Compound 46, 4-[(1S)-1-[[1-ethyl-4-[[4-(trifluoromethyl)phenyl]methyl]-pyrrolo[2,3-b]pyridine-3-carbonyl]amino]ethyl]benzoic acid] and C[C@H](NC(=O)c1cn(CCF)c2nccc(Cc3ccc(C(F)(F)F)cc3)c12)c1ccc(C(=O)O)cc1 [Compound 47, 4-[(1S)-1-[[1-(2-fluoroethyl)-4-[[4-(trifluoromethyl)phenyl]methyl]pyrrolo[2,3-b]pyridine-3-carbonyl]amino]ethyl]benzoic acid] cannot be ordered by Ki: under 100 nM for the first, under 100 nM for the second.

First: CC(C(=O)O)c1ccc(NC(=O)c2cnn3cccc(Cc4ccc(C(F)(F)F)cc4)c23)cc1 (centres unmarked) [Compound 49, 2-[4-[[4-[[4-(trifluoromethyl)phenyl]methyl]pyrazolo[1,5-a]pyridine-3-carbonyl]amino]phenyl]propanoic acid]
Second: O=C(NCC12CCC(C(=O)O)(CC1)C2)c1cnn2cccc(Cc3ccc(C(F)(F)F)cc3)c12 [Compound 50, 4-[[[4-[[4-(trifluoromethyl)phenyl]methyl]pyrazolo[1,5-a]pyridine-3-carbonyl]amino]methyl]norbornane-1-carboxylic acid]
The Ki of the first is lower: 100 to 499 nM for the first, over 500 nM for the second.

CCn1cc(C(=O)NC23CC(CC(=O)O)(C2)C3)c2c(Cc3ccc(C(F)(F)F)cc3)ccnc21 [Compound 53] and O=C(O)CC12CC(NC(=O)c3cn(CCF)c4nccc(Cc5ccc(C(F)(F)F)cc5)c34)(C1)C2 [Compound 54, 2-[3-[[1-(2-fluoroethyl)-4-[[4-(trifluoromethyl)phenyl]methyl]-pyrrolo[2,3-b]pyridine-3-carbonyl]amino]-1-bicyclo[1.1.1]pentanyl]acetic acid] cannot be ordered by Ki: under 100 nM for the first, under 100 nM for the second.

CCn1cc(C(=O)N[C@H]2CC[C@H](CC(=O)O)CC2)c2c(Cc3ccc(C(F)(F)F)cc3)cccc21 [Compound 56, 2-[(1r,4r)-4-[[1-ethyl-4-[[4-(trifluoromethyl)phenyl]methyl]indole-3-carbonyl]amino]cyclohexyl]acetic acid] and O=C(O)C[C@H]1CC[C@H](NC(=O)c2cn(CCF)c3nccc(Cc4ccc(C(F)(F)F)cc4)c23)CC1 [Compound 57, 2-[(1r,4r)-4-[[1-(2-fluoroethyl)-4-[[4-(trifluoromethyl)-phenyl]methyl]pyrrolo[2,3-b]pyridine-3-carbonyl]amino]cyclohexyl]acetic acid] cannot be ordered by Ki: under 100 nM for the first, under 100 nM for the second.

With O=C(NC[C@H]1CC[C@H](C(=O)O)CC1)c1cn(CCF)c2nccc(Cc3ccc(C(F)(F)F)cc3)c12 [Compound 58, (1r,4r)-4-[[[1-(2-fluoroethyl)-4-[[4-(trifluoromethyl)-phenyl]methyl]-pyrrolo[2,3-b]pyridine-3-carbonyl]amino]methyl]cyclohexanecarboxylic acid] the Ki was under 100 nM.

What follows are compounds tested against T1, human Prostanoid EP4 Receptor (EP4) (assay: Prostanoid EP4 FLIPR assay (calcium flux, PGE2 addition)). Conditions: HEK293 cells transfected with human EP4, Fluo-4 calcium dye.
Format: cell-based
Method: HEK293 cells transfected with human Prostanoid EP4 Receptor (EP4) or CHO cells transfected with human Prostanoid EP2 Receptor (EP2) are maintained in DMEM supplemented with L-Glutamine, 10% FBS and 300 μg/ml G418. Cells are plated at 20,000 cells/well in black 384-well Poly-D-Lysine protein coating plate and incubated at 37° C., 5% CO2 for 24 h. Prior to the assay, calcium-sensitive dye Fluo-4 Direct™ (Molecular Devices) is reconstituted according to manufacturer instructions. The reconstituted dye was diluted in assay buffer (1× HBSS, 20 mM HEPES, and 2.5 mM Probenicid, pH 7.4). Growth media is removed and 20 μl of this diluted dye is added to each well at a final concentration of 2 μM. Plates are incubated for 50 min at 37° C. 5% C02 and 10 min at RT after dye addition. Testing compounds are diluted with DMSO to make 10-point 4-fold serial dilution. After the pre-treatment incubation, fluorescence intensity is measured on a FlexStation II fluorometric imaging plate reader (Molecular Devices). Relative fluorescence units (RFU) are measured before (20 readings) and after (40 readings) the PGE2 addition for a total 60 sec read time (Excitation=485 nm, Emission=525 nm). Data are analyzed and IC50 is calculated using GraphPad Prism 5 and the model “log(inhibitor) vs. response—Variable slope”.
Illustrative data for representative compounds are described in Table 2.

O=C(NC1CC2(C1)CC(C(=O)O)C2)c1cnn2cccc(Cc3cc4ccccc4cn3)c12 (single isomer, unassigned) [Compound 13A, cis-2-[[4-(3-isoquinolylmethyl)pyrazolo[1,5-a]pyridine-3-carbonyl]amino]spiro[3.3]heptane-6-carboxylic acid] and O=C(O)CC12CC(NC(=O)c3cnn4cccc(Cc5cccc(C(F)(F)F)c5)c34)(C1)C2 [Compound 16, 2-[3-[[4-[[3-(trifluoromethyl)phenyl]methyl]pyrazolo[1,5-a]pyridine-3-carbonyl]amino]-1-bicyclo[1.1.1]pentanyl]acetic acid] fall in the same range of IC50: 100 to 499 nM for the first, 100 to 499 nM for the second.

O=C(O)CC12CC(NC(=O)c3n[nH]c4cccc(Cc5ccc(C(F)(F)F)cc5)c34)(C1)C2 [Compound 18, 2-(3-(4-(4-(trifluoromethyl)benzyl)-1H-indazole-3-carboxamido)bicyclo[1.1.1]pentan-1-yl)acetic acid] gave an IC50 of under 100 nM.
